Data set [1] concerns zebrafish embryos expressing GFP-tagged C99. The experiment in a line: Phenotype of C99-expressing zebrafish embryos (curved trunk, Notch-dependent somite development). The following applies: treated from 48 hpf to 72 hpf, scored at 72 hpf, n=90. The data set is classed as in vivo.
The test system of data set [2] is IMR32 neuroblastoma cells overexpressing C99-YFP. Put plainly: Secreted Aβ40 ELISA, conditional media of IMR32 cells overexpressing C99-YFP. The following applies: compound 1 μM, 37° C., 24 h. The data set is classed as cell-based, human. Here is the method:
(A) IMR32 cells overexpressing C99-YFP were grown with 2 ml fresh culture medium in 6-well plates, and treated with 1 μM CL-387,785 or DAPT at 37° C. for 24 h. The cell extracts were analyzed by Western blotting. (B) Conditional media were harvested and processed for determination of secreted Aβ40 using a colorimetric Aβ40-specific ELISA kit. (C) C99-YFP-expressing IMR32 cells (160,000 cells/well) were seeded onto 6-well plates and cultured at 37° C. for 24 h, and infected with ErbB1- or ErbB2-targeting shRNA lentivirus for an additional 48 h. Infection mixtures were replaced with 2 ml fresh culture medium, and infected cells were then incubated at 37° C. for an additional 24 h. The cell extracts were analyzed by Western blotting with anti-GFP antibody. (D) The conditioned media were harvested and processed for determination of secreted Aβ40. Data are the mean±SD from three independent experiments, and were analyzed by Student's t-tests. * p<0.05. (E) Schematic presentation of the DNA construct encoding recombinant C99-GFP-P2A-GFP. […]
Cell-based γ-secretase assays for the nuclear function of AICD or NICD. […] Cellular luminescence was determined by the addition of Steady-Glo Luciferase Assay reagents (PROMEGA™), according to the manufacturer's instructions. […] The level of secreted Aβ40 was quantified using a human Aβ40 sandwich ELISA kit (Invitrogen) according to the manufacturer's instructions.

Take `CC#CC(=O)Nc1ccc2ncnc(Nc3cccc(Br)c3)c2c1` [CL-387,785, N-[4-[(3-bromophenyl)amino]-6-quinazolinyl]-2-butynamide]: the “embryo phenotype (trunk, tail, pigmentation; developmental defects)” value in data set [1] is “all but one CL-387,785-treated embryos exhibited wild-type trunks and tails with normal pigmentation”. Further, the “level of secreted Aβ40” value in data set [2] was “significantly reduced”.
